Experimental data from patent publication US20230304058A1, “NOVEL 5'CAP ANALOG HAVING CAP2 STRUCTURE AND PREPARATION METHOD THEREFOR” (Shenzhen Rhegen Biotechnology Co., Ltd., priority 2020, published 2023).

Tests used:
T7 Enzyme Mix = T7 Enzyme Mix (Escherichia phage T7, UniProt P00573); assay: In vitro transcription mRNA synthesis with cap analog, reaction yield; type: biochemical; conditions: per ml transcription reaction system; 37° C. for 6 h; LiCl purification
Experimental: 1. Before synthesizing mRNA, linearize the plasmid with Notl, digested at […] overnight;
2. Extract with DNA template;
React at 37° C. for 6 h. Digest with TURBO DNase for 15 min.
4. Purify the transcription products using LiCl solution and calculate the reaction yields.

mRNA = mRNA capping rate by RNase H cleavage and LC-MS; type: biochemical; conditions: ratio of capped and uncapped mRNA
Text: The mRNA molecules with different Cap structures obtained in Example 1 were subjected to enzymatic cleavage, and the ratio of capped and uncapped mRNA molecules could be determined in a liquid chromatography-mass spectrometry analysis experiment.
1. Concentrate the beads using a magnet, aspirate the supernatant storage solution, and add an equal volume of 0.1 M NaOH +0.05 M NaCl;
2. Aspirate the supernatant and resuspend the beads with an equal volume of 0.1 M NaCl, keep the concentration constant;
3. Anneal mRNA and cleavage tags, configure the following reaction system;
Gradient annealing: 95° C. 5 min
4. Combining cleavage tags with beads • Beads were centrifuged at 15,000 g for 5 min, and the supernatant was removed, then 120 μl of annealed mRNA and tags were added and incubated for 30 min at room temperature, during which time they were gently shaken to ensure adequate binding.
5. Enzyme cleavage using RNase H; • Add 10 μl RNase H and incubate at 37° C. for 3 h. Precipitate the beads with magnet and discard the supernatant. • Add 100 μl washing buffer, mix thoroughly, magnet precipitate for 2 min, and discard the supernatant. Repeat 3 times. • Wash with DI water for 3 times.
6. Hydrolysis with RppH; • Use 10 units RppH in nebuffer 2 to hydrolyze at room temperature for 1 h.
DI water was aspirated, 100 μl of 75% ethanol preheated to 80° C. was added, incubat for 3 min, and magnet precipitat for 3 min. The supernatant was taken, followed by evaporating, and centrifuge for 45 min to a volume of 10 μl. Finally, the sample was resuspended in 50 μl of […] EDTA/1% MeOH and left for LC-MS analysis.
9. the mRNA capping rate of different Cap analogs synthesized was analyzed with LC-MS.

[1] = system: TLR3, TLR7, TLR8 and RIG-1; assay: Intracellular immunogenicity of capped mRNA by RNA immunoprecipitation and quantitative PCR; type: cell-based; conditions: relative to ARCA; Human-derived PBMC cells, 5 μg mRNA, Lipofectamine 2000, 24 h
Experimental: Experimental methods: the intracellular immunoproteins TLR3, TLR7, TLR8 and RIG-1 were immunoprecipitated together with their bound RNAs by RNA immunoprecipitation, and finally these mRNAs were identified by real-time quantitative PCR, and their relative abundance was proportional to their immunogenicity.
The cells were collected by trypsin digestion 24 h later and resuspended in PBS, centrifuged, and collected.
Fixative was added to the cells, and after 15 minutes glycine was added for termination of fixation, followed by centrifugation to collect the cells. Cells were resuspended by adding lysate, incubated on ice at 4° C. for 30 min, centrifuged at 2400 g for 10 min, and the supernatant was collected.
TLR3, TLR7, TLR8 and RIG-1 antibodies (2-10 μg) were added to the supernatant (6-10 mg) followed by gentle incubation at 4° C. for 2 hours. Protein AIG beads (40 μL) were then added to them and incubated gently for 1 h at 4° C.
Centrifuge at 2500 rpm for 30 seconds with precipitated magnetic beads and remove the supernatant. Resuspend the beads in 500 μL of RIP buffer. Wash in RIP buffer a total of three times, followed by one wash in PBS.
Resuspend magnetic beads in TRIzol RNA Extraction Reagent (1 mL) and isolate co-precipitated RNA, and then elute RNA using nuclease-free water (20 μL).
6. Reverse transcribe (RT) the RNA into cDNA and design primers according to the mRNA sequence for quantitative PCR analysis. mRNA immunogenicity is proportional to the number of mRNA copies precipitated by magnetic beads.

Chain of T7 Enzyme Mix (P00573 whole entry): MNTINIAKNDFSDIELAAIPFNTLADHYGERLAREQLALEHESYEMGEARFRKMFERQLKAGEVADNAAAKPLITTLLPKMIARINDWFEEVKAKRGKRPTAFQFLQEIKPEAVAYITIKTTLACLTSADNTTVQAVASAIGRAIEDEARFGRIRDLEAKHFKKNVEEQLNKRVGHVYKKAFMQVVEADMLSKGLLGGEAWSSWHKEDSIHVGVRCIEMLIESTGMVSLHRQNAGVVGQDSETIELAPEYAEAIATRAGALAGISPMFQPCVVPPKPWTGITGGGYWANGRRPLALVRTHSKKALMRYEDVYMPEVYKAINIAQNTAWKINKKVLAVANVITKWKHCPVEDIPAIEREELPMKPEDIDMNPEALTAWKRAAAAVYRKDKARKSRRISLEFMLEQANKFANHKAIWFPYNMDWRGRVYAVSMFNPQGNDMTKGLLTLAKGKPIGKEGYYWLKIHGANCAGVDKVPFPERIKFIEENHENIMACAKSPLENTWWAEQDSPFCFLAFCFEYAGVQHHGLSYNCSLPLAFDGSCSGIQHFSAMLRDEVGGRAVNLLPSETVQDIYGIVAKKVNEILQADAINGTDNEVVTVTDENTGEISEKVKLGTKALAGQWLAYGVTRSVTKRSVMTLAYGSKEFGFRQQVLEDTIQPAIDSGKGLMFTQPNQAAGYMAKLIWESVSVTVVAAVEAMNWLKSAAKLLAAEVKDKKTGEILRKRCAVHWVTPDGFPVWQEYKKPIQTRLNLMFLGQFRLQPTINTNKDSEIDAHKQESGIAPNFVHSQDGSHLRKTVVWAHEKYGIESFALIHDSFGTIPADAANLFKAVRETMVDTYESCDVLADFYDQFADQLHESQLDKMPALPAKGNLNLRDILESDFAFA

Row | SMILES | Mass of final product obtained from 1 ml mRNA synthesis reaction system (T7 Enzyme Mix) [mg] | mRNA capping rates when using different Cap structures (mRNA) [%] | Intracellular immunogenicity of mRNA when using different Cap structures [1]
1 | CO[C@@H]1[C@H](OP(=O)(O)OC[C@H]2O[C@@H](n3cnc4c(N)ncnc43)[C@H](OC)[C@@H]2O)[C@@H](COP(=O)(O)OP(=O)(O)OP(=O)([O-])OC[C@H]2O[C@@H](n3c[n+](C)c4c(=O)[nH]c(N)nc43)[C@H](O)[C@@H]2O)O[C@H]1n1ccc(N)nc1=O [Cap analog 7, m7G(5′)ppp(5′)(2′OMeC)p(2′OMeA)] | 5.3 | 94.76 | 0.24
2 | CO[C@@H]1[C@H](O)[C@@H](COP(=O)(O)O[C@H]2[C@@H](OC)[C@H](n3cnc4c(N)ncnc43)O[C@@H]2COP(=O)(O)OP(=O)(O)OP(=O)([O-])OC[C@H]2O[C@@H](n3c[n+](C)c4c(=O)[nH]c(N)nc43)[C@H](O)[C@@H]2O)O[C@H]1n1ccc(N)nc1=O [Cap analog 9, m7G(5′)ppp(5′)(2′OMeA)p(2′OMeC)] | 4.8 | 94.73 | 0.4
3 | CO[C@@H]1[C@H](OP(=O)(O)OC[C@H]2O[C@@H](n3cnc4c(=O)[nH]c(N)nc43)[C@H](OC)[C@@H]2O)[C@@H](COP(=O)(O)OP(=O)(O)OP(=O)([O-])OC[C@H]2O[C@@H](n3c[n+](C)c4c(=O)[nH]c(N)nc43)[C@H](O)[C@@H]2OC)O[C@H]1n1ccc(=O)[nH]c1=O [Cap analog 20, 3-O-Me-m7G(5′)ppp(5′)(2′OMeU)p(2′OMeG)] | 4.6 | 94.42 | 0.51
4 | CO[C@@H]1[C@H](O)[C@@H](COP(=O)(O)O[C@H]2[C@@H](OC)[C@H](n3cnc4c(=O)[nH]c(N)nc43)O[C@@H]2COP(=O)(O)OP(=O)(O)OP(=O)([O-])OC[C@H]2O[C@@H](n3c[n+](C)c4c(=O)[nH]c(N)nc43)[C@H](O)[C@@H]2OC)O[C@H]1n1ccc(=O)[nH]c1=O [Cap analog 30, 3-O-Me-m7G(5′)ppp(5′)(2′OMeG)p(2′OMeU)] | 5.3 | 94.8 | 0.31
5 | CO[C@@H]1[C@H](O)[C@@H](COP(=O)(O)O[C@H]2[C@@H](OC)[C@H](n3cnc4c(=O)[nH]c(N)nc43)O[C@@H]2COP(=O)(O)OP(=O)(O)OP(=O)([O-])OC[C@H]2O[C@@H](n3c[n+](C)c4c(=O)[nH]c(N)nc43)[C@H](O)[C@@H]2OC)O[C@H]1n1cnc2c(N)ncnc21 [Cap analog 22, 3-O-Me-m7G(5′)ppp(5′)(2′OMeG)p(2′OMeA)] | 4.6 | 94.83 | 0.29
6 | CO[C@@H]1[C@H](O)[C@@H](COP(=O)(O)O[C@H]2[C@@H](OC)[C@H](n3ccc(=O)[nH]c3=O)O[C@@H]2COP(=O)(O)OP(=O)(O)OP(=O)([O-])OC[C@H]2O[C@@H](n3c[n+](C)c4c(=O)[nH]c(N)nc43)[C@H](O)[C@@H]2OC)O[C@H]1n1ccc(N)nc1=O [Cap analog 28, 3-O-Me-m7G(5′)ppp(5′)(2′OMeU)p(2′OMeC)] | 4.8 | 94.62 | 0.52
7 | CO[C@@H]1[C@H](O)[C@@H](COP(=O)(O)O[C@H]2[C@@H](OC)[C@H](n3cnc4c(N)ncnc43)O[C@@H]2COP(=O)(O)OP(=O)(O)OP(=O)([O-])OC[C@H]2O[C@@H](n3c[n+](C)c4c(=O)[nH]c(N)nc43)[C@H](O)[C@@H]2O)O[C@H]1n1cnc2c(=O)[nH]c(N)nc21 [Cap analog 1, m7G(5′)ppp(5′)(2′OMeA)p(2′OMeG)] | 4.5 | 94.91 | 0.40
8 | CO[C@@H]1[C@H](O)[C@@H](COP(=O)(O)O[C@H]2[C@@H](OC)[C@H](n3ccc(N)nc3=O)O[C@@H]2COP(=O)(O)OP(=O)(O)OP(=O)([O-])OC[C@H]2O[C@@H](n3c[n+](C)c4c(=O)[nH]c(N)nc43)[C@H](O)[C@@H]2OC)O[C@H]1n1ccc(=O)[nH]c1=O [Cap analog 31, 3-O-Me-m7G(5′)ppp(5′)(2′OMeC)p(2′OMeU)] | 4.5 | 94.7 | 0.4
9 | CO[C@@H]1[C@H](O)[C@@H](COP(=O)(O)O[C@H]2[C@@H](OC)[C@H](n3cnc4c(=O)[nH]c(N)nc43)O[C@@H]2COP(=O)(O)OP(=O)(O)OP(=O)([O-])OC[C@H]2O[C@@H](n3c[n+](C)c4c(=O)[nH]c(N)nc43)[C@H](O)[C@@H]2OC)O[C@H]1n1cnc2c(=O)[nH]c(N)nc21 [Cap analog 18, 3-O-Me-m7G(5′)ppp(5′)(2′OMeG)p(2′OMeG)] | 4.1 | 94.98 | 0.31
10 | CO[C@@H]1[C@H](O)[C@@H](COP(=O)(O)O[C@H]2[C@@H](OC)[C@H](n3cnc4c(N)ncnc43)O[C@@H]2COP(=O)(O)OP(=O)(O)OP(=O)([O-])OC[C@H]2O[C@@H](n3c[n+](C)c4c(=O)[nH]c(N)nc43)[C@H](O)[C@@H]2OC)O[C@H]1n1cnc2c(=O)[nH]c(N)nc21 [Cap analog 17, 3-O-Me-m7G(5′)ppp(5′)(2′OMeA)p(2′OMeG)] | 4.7 | 94.91 | 0.44
11 | CO[C@@H]1[C@H](O)[C@@H](COP(=O)(O)O[C@H]2[C@@H](OC)[C@H](n3cnc4c(N)ncnc43)O[C@@H]2COP(=O)(O)OP(=O)(O)OP(=O)([O-])OC[C@H]2O[C@@H](n3c[n+](C)c4c(=O)[nH]c(N)nc43)[C@H](O)[C@@H]2O)O[C@H]1n1cnc2c(N)ncnc21 [Cap analog 5, m7G(5′)ppp(5′)(2′OMeA)p(2′OMeA)] | 4.4 | 94.88 | 0.52
12 | CO[C@@H]1[C@H](O)[C@@H](COP(=O)(O)O[C@H]2[C@@H](OC)[C@H](n3cnc4c(=O)[nH]c(N)nc43)O[C@@H]2COP(=O)(O)OP(=O)(O)OP(=O)([O-])OC[C@H]2O[C@@H](n3c[n+](C)c4c(=O)[nH]c(N)nc43)[C@H](O)[C@@H]2O)O[C@H]1n1cnc2c(=O)[nH]c(N)nc21 [Cap analog 2, m7G(5′)ppp(5′)(2′OMeG)p(2′OMeG)] | 4.9 | 95.1 | 0.37
13 | CO[C@@H]1[C@H](OP(=O)(O)OC[C@H]2O[C@@H](n3cnc4c(=O)[nH]c(N)nc43)[C@H](OC)[C@@H]2O)[C@@H](COP(=O)(O)OP(=O)(O)OP(=O)([O-])OC[C@H]2O[C@@H](n3c[n+](C)c4c(=O)[nH]c(N)nc43)[C@H](O)[C@@H]2O)O[C@H]1n1ccc(N)nc1=O [Cap analog 3, m7G(5′)ppp(5′)(2′OMeC)p(2′OMeG)] | 5.8 | 94.82 | 0.28
14 | CO[C@@H]1[C@H](OP(=O)(O)OC[C@H]2O[C@@H](n3cnc4c(=O)[nH]c(N)nc43)[C@H](OC)[C@@H]2O)[C@@H](COP(=O)(O)OP(=O)(O)OP(=O)([O-])OC[C@H]2O[C@@H](n3c[n+](C)c4c(=O)[nH]c(N)nc43)[C@H](O)[C@@H]2OC)O[C@H]1n1ccc(N)nc1=O [Cap analog 19, 3-O-Me-m7G(5′)ppp(5′)(2′OMeC)p(2′OMeG)] | 4.4 | 95 | 0.26
